Assay results published in patent publication US20260077018A1, “TREATMENT OF MILD TRAUMATIC BRAIN INJURY” (OXEIA BIOPHARMACEUTICALS, INC., priority 2022, published 2026).
No end group written: not given here. *: point of attachment. Octanoyl = CCCCCCCC(=O)*

Tests used:
[1] = tested on: persistently symptomatic concussion patients; test: Phase 2 study interim analysis, efficacy endpoints overall; type: in vivo, human
Description: (§1) A Phase 2 study of treatment of persistently symptomatic concussion patients with ghrelin (OXE-103) was undertaken at the University of Kansas Medical Center generally as described in Example 1. The interim results are reported herein (FIG. 1).
(§2) A study to treat patients with sub-acute concussion using a pharmaceutical formulation of ghrelin (OXE-103) was performed. The completed results from treatment group of 10 patients were compared to a 3 patient placebo group receiving standard of care (SoC). Additionally, two other patients are currently undergoing the treatment arm of the study at the time of the interim report. The study was performed in a randomized, double blind fashion and compared using self-report symptom scoring, quality of life questionnaires, computerized cognitive testing assessing executive function, memory and processing speed, and accelerometer-based balance scoring.
Efficacy endpoints for the interim study were: PCSS—22 symptom concussion scoring scale, QOLIBRI—WHO TBI specific Quality of Life after Brain Injury, and BRAIN CHECK—digital assessment of cognition, balance, visual changes (510K FDA approved).
Feedback from clinicians indicated a 20% decrease in concussion symptoms would be considered clinically significant improvement. Graphs of QOLIBRI (FIG. 3A), PCSS—total severity score (FIG. 4A), PGAS (FIG. 5A), 4MB3S (FIG. 6A), and PCSS number of symptoms (FIG. 7A) show a black line for 20% change from baseline. The graphs in FIGS. 3A, 4A, 5A, 6A, and 7A show average scores per time point for each endpoint at days 1, 4, 8, 11, 15, 21 and 44 for both the treatment and control (SoC) arms. For PCSS, number of symptoms, PGAS, and 4MBS, a patient is considered to have responded to treatment if percent change is less than or equal to −20% compared to baseline. For QOLIBRI, a patient is considered to have responded to treatment if percent change is greater than or equal to 20% compared to baseline.

[2] = in vivo; cited from earlier work
[3] = in vivo; cited from earlier work; remark: listed apart in the source
[4] = tested on: persistently symptomatic concussion patients; test: Phase 2 study of OXE-103 in persistently symptomatic concussion: QOLIBRI quality of life; type: in vivo, human; settings: Treated, 13 subjects
Description: Describe the change in quality of life between the two groups. This aim defines one of the secondary objectives. To assess this, the Quality of Life after Brain Injury scale (QOLIBRI) and a Patient Global Assessment of Status (PGAS) are administered. […] The primary objective with this aim assesses the change between days 1 and 14.
Described herein is a randomized, double-blind, placebo-controlled design where 40 subjects will be randomized to either a placebo cohort or a treatment with OXE-103 cohort. We randomize using the RedCap database. The database is set up to share randomization allocation only with the investigational pharmacy. All subjects are consented and begin the screening period within 28 days post-injury. There is a 7-day screening period prior to randomization and commencement of study treatment to allow for assessment of stability of symptom burden. This screening period must start no later than 28 days post-injury. Starting with Day 1 (end of screening period), the treatment cohort receives OXE-103 40ug/kg SC twice daily by self-injection and the placebo group receives a placebo injection SC twice daily. Study drug and placebo are maintained and dispensed by Investigational Pharmacy. Subjects receive an 8-day supply of syringes pre-loaded with OXE-103 or placebo. Each cohort receives the 2nd set of syringes with OXE-103 or placebo at the day 7 visit. No therapies other than OXE-103 are administered during the 14-day treatment period to either cohort. After completion of 14 days of either placebo or OXE-103 treatment, starting with the Day 14 visit, other medications and therapies can be initiated for either cohort as needed.
Quality of Life (AIM 2): A secondary goal is to examine change in quality of life with treatment of sub-acute concussion. Without bewing bound by theory, it is hypothesized that OXE-103 will reduce symptoms when comparing days 1 and 15 and therefore improve quality of life as assessed by 1) Quality of Life after Brain Injury scale (QOLIBRI) and 2) a PGAS.
The QOLIBRI is a 37 item instrument specifically developed to assess health-related quality of life (HRQoL) of individuals after traumatic brain injury. This is built into a RedCap Survey that will be completed online. Since it was developed for TBI as a disease or condition-specific HRQoL instrument, it is expected to be more sensitive than generic quality of life tools. The QOLIBRI was developed by an international task force in two multi-language studies involving over 2000 persons after TBI. Use of a TBI-specific assessment of HRQoL can detect the effects of interventions by measuring physical, psychological, daily life and psychosocial changes typical of TBI. An increase/decrease of 20% in QOLIBRI is judged to represent an improvement.
The QOL measures are obtained on day 1, 4, 8, 11, 15, 21, & 44. The completion of these takes an estimated 15 minutes.
as §1, §2
Feedback from clinicians indicated a 20% decrease in concussion symptoms would be considered clinically significant improvement. […]

Substance: ghrelin (GSS(Octanoyl)FLSPEHQRVQQRKESKKPPAKLQPR; UniProt Q9UBU3 24-51, looked up) [OXE-103, naturally occurring peptide comprising 28 amino acids that include an N-octanoyl group at the 3-position of serine]
- durability of treatment effects ([1]; across study endpoints): at least 44 days
- Responder Rate (RR) ([1]; both endpoints, by 40 days after start of treatment): 80%
- onset of treatment effect ([1]; persistently effected population): 8 to 10 days
- improvement ([1]; within 8-10 days of treatment, interim time point): greater than 20%
- effects of long term use [2]: increased appetite, weight gain, and adiposity
- safety in previous studies [2]: quite safe
- serum half-life [3]: about 30 minutes
- 20% Responders - QOLIBRI: Number of Responders ([4]; Day 1): 0
- 20% Responders - QOLIBRI: Responder % ([4]; Day 1): 0%
- 30% Responders - QOLIBRI: Number of Responders ([4]; Day 1): 0
- 30% Responders - QOLIBRI: Responder % ([4]; Day 1): 0%
- 20% Responders - QOLIBRI: Number of Responders ([4]; Day 4): 4
- 20% Responders - QOLIBRI: Responder % ([4]; Day 4): 31%
- 30% Responders - QOLIBRI: Number of Responders ([4]; Day 4): 3
- 30% Responders - QOLIBRI: Responder % ([4]; Day 4): 23%
- 20% Responders - QOLIBRI: Number of Responders ([4]; Day 8): 4
- 20% Responders - QOLIBRI: Responder % ([4]; Day 8): 31%
- 30% Responders - QOLIBRI: Number of Responders ([4]; Day 8): 4
- 30% Responders - QOLIBRI: Responder % ([4]; Day 8): 31%
- 20% Responders - QOLIBRI: Number of Responders ([4]; Day 11): 7
- 20% Responders - QOLIBRI: Responder % ([4]; Day 11): 54%
- 30% Responders - QOLIBRI: Number of Responders ([4]; Day 11): 5
- 30% Responders - QOLIBRI: Responder % ([4]; Day 11): 38%
- 20% Responders - QOLIBRI: Number of Responders ([4]; Day 15): 7
- 20% Responders - QOLIBRI: Responder % ([4]; Day 15): 54%
- 30% Responders - QOLIBRI: Number of Responders ([4]; Day 15): 5
- 30% Responders - QOLIBRI: Responder % ([4]; Day 15): 38%
- 20% Responders - QOLIBRI: Number of Responders ([4]; Day 21): 9
- 20% Responders - QOLIBRI: Responder % ([4]; Day 21): 69%
- 30% Responders - QOLIBRI: Number of Responders ([4]; Day 21): 7
- 30% Responders - QOLIBRI: Responder % ([4]; Day 21): 54%
- 20% Responders - QOLIBRI: Number of Responders ([4]; Day 44): 11
- 20% Responders - QOLIBRI: Responder % ([4]; Day 44): 85%
- 30% Responders - QOLIBRI: Number of Responders ([4]; Day 44): 10
- 30% Responders - QOLIBRI: Responder % ([4]; Day 44): 77%
